Measured values taken from patent EP4790046A1, “NOVEL COMPOUND DERIVED FROM MYRISTICA FRAGRANS, AND ANTICANCER COMPOSITION COMPRISING SAME” (Korea Institute of Science and Technology, priority 2023, dated 2025).
Where two headings read alike, the source gives them in different places.

Experiments:
AGS = experiment: alamarBlue cell viability (survival rate, IC50), AGS; assay type: cell-based; conditions: AGS (gastric cancer)
From the text: (§1) A p-value < 0.05 was considered statistically significant.

23132/87 = experiment: alamarBlue cell viability (survival rate, IC50), 23132/87; assay type: cell-based; conditions: 23132/87 (gastric cancer)
From the text: as §1

SNU-81 = experiment: alamarBlue cell viability (survival rate, IC50), SNU-81; assay type: cell-based
From the text: as §1

SW48 = experiment: alamarBlue cell viability (survival rate, IC50), SW48; assay type: cell-based; conditions: SW48 (colorectal cancer)
From the text: as §1

SNU201 = experiment: alamarBlue cell viability (survival rate), SNU201; assay type: cell-based; conditions: SNU201 (glioblastoma), compound 10 µM, 48 hours
From the text: as §1

SNU466 = experiment: alamarBlue cell viability (survival rate), SNU466; assay type: cell-based; conditions: SNU466 (glioblastoma), compound 10 µM, 48 hours
From the text: as §1

HepG2 = experiment: alamarBlue cell viability (survival rate), HepG2; assay type: cell-based; conditions: HepG2 (liver cancer), compound 10 µM, 48 hours
From the text: as §1

23132/87 cell line = experiment: Cell cycle distribution (PI/RNase staining, flow cytometry), 23132/87; assay type: cell-based; conditions: 48 hours
Protocol: (§2) Cell cycle distribution was analyzed by DNA staining using FxCycle PI/RNase Staining Solution (Invitrogen, USA). The 23132/87 and SW48 cell lines was seeded at densities of 5 × 10^5 and 7 × 10^5cells/well, respectively, in 6-well plates. After 24 hours of culture, cells were starved overnight in serum-free medium. […] Cells were then harvested, fixed with 70% ethanol, and stained with PI/RNase solution. Samples were analyzed by flow cytometry (BD FACSVerse Cell Analyzer and FlowJo software, BD Biosciences, Franklin Lakes, NJ, USA) based on 10,000 events.
(§3) Student's t-test was performed for statistical analysis between the 2 concentrations of the same compound.

SW48 cell line = experiment: Cell cycle distribution (PI/RNase staining, flow cytometry), SW48; assay type: cell-based
Protocol: as §2, §3

23132/87 cells [1] = experiment: Apoptosis, Annexin V-FITC/PI staining, flow cytometry, 23132/87; assay type: cell-based; conditions: for Apoptosis distribution (%), Q2: Annexin V-FITC+/PI+ (late apoptosis and cell death); for Apoptosis distribution (%), Q3: Annexin V-FITC+/PI- (early apoptosis); for Apoptosis distribution (%), Q4: Annexin V-FITC-/PI- (healthy population)
Protocol: (§4) 23132/87 and SW48 cells were seeded at densities of 5 × 10^5 and 7 × 10^5 cells/well in a 6-well plate and cultured for 24 hours. […] After treatment, cells were harvested and stained using the Annexin V-FITC Early Apoptosis Detection Kit (6592, Cell Signaling Technology, USA). Flow cytometry (BD FACSVerse Cell Analyzer and FlowJo software, BD Biosciences, USA) was applied to analyze the samples based on 10,000 events.
as §3

SW48 cells [2] = experiment: Apoptosis, Annexin V-FITC/PI staining, flow cytometry, SW48; assay type: cell-based; conditions: for Apoptosis distribution (%), Q1 / Apoptosis distribution (%), Q2 / Apoptosis distribution (%), Q3 / Apoptosis distribution (%), Q4: 20 hours; for Apoptosis distribution (%), Q2: Annexin V-FITC+/PI+ (late apoptosis and cell death); for Apoptosis distribution (%), Q3: Annexin V-FITC+/PI- (early apoptosis); for Apoptosis distribution (%), Q4: Annexin V-FITC-/PI- (healthy population)
Protocol: as §4, §3

caspase-3 and -7 = experiment: Caspase-3/7 activity assay (Caspase-Glo 3/7), 23132/87 cells; assay type: cell-based; conditions: for Caspase-3/7 activity: RLU relative to DMSO; for caspase-3/7 RLU increase over DMSO: 23132/87
Protocol: Apoptosis can be activated and progress through either the intrinsic or extrinsic pathway, but caspase-3, the executioner caspase, is involved in most cases. […] Since this enzyme activity is transient, analysis was performed at two time points: 6 hours and 12 hours post-treatment.
Specifically, the Caspase-3/7 activity assay was performed with slight modifications to the manufacturer's protocol (Promega, USA). Briefly, cells were seeded at a density of 5 × 10^3 cells/well in a 96-well plate, cultured for 24 hours, and then treated with the compound at an appropriate concentration for 6 or 12 hours. After treatment, Caspase-Glo 3/7 reagent was added in equal volumes to the treated samples. The plate was then shaken and incubated at room temperature for 2 hours. Enzyme activity was determined by measuring relative light units (RLU) using a Varioskan LUX Multimode Microplate Reader (Thermo Fisher Scientific, USA).

23132/87 cells [3] = experiment: Xenograft mouse model, tumor volume, 23132/87 (gastric cancer); assay type: in vivo, BALB/c/nu/nu mice; conditions: 10 mg/kg intraperitoneal on alternate days, to day 27
Protocol: (§5) Tumor volume and body weight were measured twice weekly.

SW48 cells [4] = experiment: Xenograft mouse model, tumor volume, SW48 (colorectal cancer); assay type: in vivo, BALB/c/nu/nu mice; conditions: 10 mg/kg intraperitoneal on alternate days, to day 27
Protocol: as §5

[5] = mouse, in vivo, ip, 10 mg/kg
Protocol: Female BALB/c/nu/nu mice (5 weeks old) were used in the in vivo model.
As shown in the schematic diagram of Figure 16a, 23132/87 and SW48 cells were injected subcutaneously into mice at densities of 5 × 10^6 cells/mouse and 3 × 10^6 cells/mouse, respectively. […] Tumor volume and body weight were measured twice weekly. On day 27, mice were sacrificed, and major organs (liver, spleen, kidney) and tumor tissue were collected and stored for further analysis. Tumor volume was calculated using the following formula: Volume (mm^3) = (Length) × (Width)^2 × 1/2.

[6] = tested on: various cancer cell lines; experiment: alamarBlue cell viability, statements across the cell line panel
Protocol: AGS, SW48, HepG2, and MiaPaCa-2 was purchased from ATCC (American Type Culture Collection, USA), SNU cell lines from the Korean Cell Line Bank (KCLB, Korea), and 23132/87 from the Leibniz Institute DSMZ - German Collection of Microorganisms and Cell Cultures GmbH (DSMZ, Germany). All cell lines were cultured in RPMI-1640 medium (HyClone, USA) supplemented with 10% FBS (Gibco, USA) and 1% penicillin-streptomycin (HyClone, USA) under conditions of 5% CO2, 37°C.
Cells were seeded at a density of 5 × 10^3cells/well in a 96-well plate for 24 hours, then treated with the compound at an appropriate concentration (10 µM) for 48 hours. After treatment, alamarBlue reagent was added at a volume ratio of 1/10 of the treatment volume and incubated for 4 hours in a 37°C cell incubator (protected from direct light). Cell viability was then determined by measuring absorbance values at 570 nm and 600 nm using a microplate reader. The anticancer effects of candidate compounds were evaluated by assessing the cell viability (%) of cells treated at specific concentrations and the half-maximal inhibitory concentration (IC50) of each natural product. Doxorubicin and oxaliplatin were used as positive controls for gastric and colorectal cancer, respectively.
Statistical analysis was performed using R software (version 4.2.2) (R Core Team). Differences between groups were assessed using student's t-test or 1-way ANOVA followed by post-hoc Tukey HSD test. A p-value < 0.05 was considered statistically significant.
Further, to measure the IC50 values against six cancer cell lines.

- anticancer activity (comparison of IC50 values among compounds) ([6]; six cancer cell lines, 2.5-40 µM): strongest anticancer activity
SMILES: C=CCc1cc(OC)c(O[C@H](C)[C@H](c2ccc(O)c(OC)c2)c2ccc(O)c(C(=O)CCCCCCCCc3ccc(O)cc3)c2O)c(OC)c1 [Compound 3, Myricone C]
- Cancer cell line survival rate (%) (AGS; compound 10 µM, 48 hours): 0.16%
- IC50 (AGS; Homo sapiens, 2.5-40 µM, positive control = doxorubicin): 3.62 µM
- IC50 (23132/87; 2.5-40 µM, positive control = doxorubicin): 2070 nM
- Cancer cell line survival rate (%) (23132/87; compound 10 µM, 48 hours): 1.77%
- IC50 (SNU-81; SNU81 (colorectal cancer), 2.5-40 µM, positive control = oxaliplatin, read-out: IC50): 9.84 µM
- IC50 (SNU-81; SNU81 cells, compound 2.5-40 µM, read-out: IC50 values): 9.84 µM
- Cancer cell line survival rate (%) (SNU-81; SNU-81 (colorectal cancer), compound 10 µM, 48 hours): 47.08%
- IC50 (SW48; Homo sapiens, 2.5-40 µM, positive control = oxaliplatin): 2550 nM
- Cancer cell line survival rate (%) (SW48; compound 10 µM, 48 hours): 0.01%
- Cancer cell line survival rate (%) (SNU201): 1.17%
- Cancer cell line survival rate (%) (SNU466): 1.91%
- Cancer cell line survival rate (%) (HepG2): 1.60%
- Cell cycle distribution, G1 (23132/87 cell line; 23132/87, 5 µM): 63.00%
- Cell cycle distribution, G2/M (23132/87 cell line; 23132/87, 5 µM): 6.79%
- Cell cycle distribution, S (23132/87 cell line; 23132/87, 5 µM): 21.23%
- Cell cycle distribution, Sub G1 (23132/87 cell line; 23132/87, 5 µM): 9.15%
- Cell cycle distribution, G1 (23132/87 cell line; 23132/87, 10 µM): 68.93%
- Cell cycle distribution, G2/M (23132/87 cell line; 23132/87, 10 µM): 6.19%
- Cell cycle distribution, S (23132/87 cell line; 23132/87, 10 µM): 14.40%
- Cell cycle distribution, Sub G1 (23132/87 cell line; 23132/87, 10 µM): 10.45%
- G1 phase increase compared to DMSO (23132/87 cell line; 23132/87, 10 µM): about 10%
- G2/M phase decrease compared to DMSO (23132/87 cell line; 23132/87, 10 µM): about 4%
- Cell cycle distribution, G1 (SW48 cell line; SW48, 5 µM, 48 hours): 56.63%
- Cell cycle distribution, G2/M (SW48 cell line; SW48, 5 µM, 48 hours): 8.91%
- Cell cycle distribution, S (SW48 cell line; SW48, 5 µM, 48 hours): 23.00%
- Cell cycle distribution, Sub G1 (SW48 cell line; SW48, 5 µM, 48 hours): 9.65%
- Cell cycle distribution, G1 (SW48 cell line; SW48, 10 µM, 48 hours): 50.93%
- Cell cycle distribution, G2/M (SW48 cell line; SW48, 10 µM, 48 hours): 6.13%
- Cell cycle distribution, S (SW48 cell line; SW48, 10 µM, 48 hours): 19.30%
- Cell cycle distribution, Sub G1 (SW48 cell line; SW48, 10 µM, 48 hours): 24.17%
- sub-G1 proportion increase compared to the DMSO control (SW48 cell line; SW48, 10 µM, 48 hours): 7%
- G2 phase (SW48 cell line; SW48, 5 µM): 8.91% ± 0.24%
- sub-G1 phase ratio (SW48 cell line; SW48, 5 µM): 9.65% ± 1.02%
- G2 phase (SW48 cell line; SW48, 10 µM): 6.13% ± 0.47%
- sub-G1 phase ratio (SW48 cell line; SW48, 10 µM): 24.17% ± 0.98%
- proportions of the G1, S, and G2/M phases (SW48 cell line; SW48, 10 µM, 48 hours, only G2/M decrease statistically significant): slightly reduced
- Apoptosis distribution (%), Q2 (23132/87 cells [1]; 23132/87, 5 µM, 20 hours): 9.35%
- Apoptosis distribution (%), Q3 (23132/87 cells [1]; 23132/87, 5 µM, 20 hours): 5.76%
- Apoptosis distribution (%), Q4 (23132/87 cells [1]; 23132/87, 5 µM, 20 hours): 81.57%
- Apoptosis distribution (%), Q2 (23132/87 cells [1]; 23132/87, 10 µM, 20 hours): 10.47%
- Apoptosis distribution (%), Q3 (23132/87 cells [1]; 23132/87, 10 µM, 20 hours): 10.97%
- Apoptosis distribution (%), Q4 (23132/87 cells [1]; 23132/87, 10 µM, 20 hours): 75.00%
- Q3 population (23132/87 cells [1]; 23132/87, 5 µM): 5.76% ± 0.35%
- Apoptosis distribution (%), Q1 (23132/87 cells [1]; 23132/87, 5 µM, 20 hours): 3.30%
- Q3 ratio compared with DMSO control (23132/87 cells [1]; 23132/87, 5 µM, 20 hours): significantly increased
- Q3 population (23132/87 cells [1]; 23132/87, 10 µM): 10.97% ± 0.12%
- Q4 distribution reduction compared to the control group (23132/87 cells [1]; 23132/87, 10 µM): 8.27%
- Apoptosis distribution (%), Q1 (23132/87 cells [1]; 23132/87, 10 µM, 20 hours): 3.59%
- Q2 ratio increase compared with DMSO control (23132/87 cells [1]; 23132/87, 10 µM, 20 hours): about 2%
- Q3 ratio increase compared with DMSO control (23132/87 cells [1]; 23132/87, 10 µM, 20 hours): ~6%
- Q2 and Q3 with increasing concentrations (23132/87 cells [1]; 23132/87, 5 to 10 µM): significantly increased
- Apoptosis distribution (%), Q1 (SW48 cells [2]; SW48, 5 µM): 7.41%
- Apoptosis distribution (%), Q2 (SW48 cells [2]; SW48, 5 µM): 13.80%
- Apoptosis distribution (%), Q3 (SW48 cells [2]; SW48, 5 µM): 13.73%
- Apoptosis distribution (%), Q4 (SW48 cells [2]; SW48, 5 µM): 65.10%
- Apoptosis distribution (%), Q1 (SW48 cells [2]; SW48, 10 µM): 4.97%
- Apoptosis distribution (%), Q2 (SW48 cells [2]; SW48, 10 µM): 22.43%
- Apoptosis distribution (%), Q3 (SW48 cells [2]; SW48, 10 µM): 18.77%
- Apoptosis distribution (%), Q4 (SW48 cells [2]; SW48, 10 µM): 53.87%
- Q2 ratio (SW48 cells [2]; SW48, 5 µM): 13.80% ± 0.65%
- Q3 ratio (SW48 cells [2]; SW48, 5 µM): 13.73% ± 0.92%
- increase in the Q2 population, dose-based comparison (SW48 cells [2]; SW48, 5 µM to 10 µM): over 8%
- Q2 (Annexin V-FITC+/PI+) (SW48 cells [2]; SW48, 10 µM): 22.43% ± 0.30%
- Q2 increase compared to the control (SW48 cells [2]; SW48, 10 µM): over 8%
- Q3 ratio (SW48 cells [2]; SW48, 10 µM): 18.77% ± 1.07%
- Q4 distribution reduction compared to the control group (SW48 cells [2]; SW48, 10 µM): 9.43%
- apoptotic and dead cell population (Q2 and Q3) increase over DMSO (SW48 cells [2]; SW48, 10 µM): ~10%
- Q4 ratio reduction on changing the concentration (SW48 cells [2]; SW48, from 5 µM to 10 µM): approximately 11.23%
- Caspase-3/7 activity (caspase-3 and -7; 23132/87, 5 µM, 6 h): 0.58 fold
- Caspase-3/7 activity (caspase-3 and -7; 23132/87, 5 µM, 12 h): 1.74 fold
- Caspase-3/7 activity (caspase-3 and -7; 23132/87, 10 µM, 6 h): 1.81 fold
- Caspase-3/7 activity (caspase-3 and -7; 23132/87, 10 µM, 12 h): 1.20 fold
- caspase-3/7 RLU increase over DMSO (caspase-3 and -7; 5 µM, 12 hours): 1.74 fold
- caspase-3/7 RLU increase over DMSO (caspase-3 and -7; 10 µM, 6 hours): 1.81 fold
- tumor volume (23132/87 cells [3]): smallest tumor volume was observed starting on day 13
- tumor growth (SW48 cells [4]): suppressed compared to the control group
- body weight and the weights of major organs (liver, spleen, kidneys) [5]: remained stable
- anticancer activity ([6]; various cancer cell lines): high anticancer activity
